Laboratory results reported in patent US9023789B2, “Amylin analogs and pharmaceutical compositions thereof” (Novo Nordisk A/S, priority 2012, dated 2015).
Like-named read-outs stand apart in the source and are kept apart here. Numbered stars: 1 amine (or outer) side, 2 acyl side, 3 side chain; on linkers, the order of the positions; unused ones are H or OH. Bridge positions count the residues as written; N and C are the ends. Side chains are listed from the residue outwards. Peptide text beside a SMILES is read from it. * marks the point of attachment. C20 diacid = O=C(O)CCCCCCCCCCCCCCCCCCC(=O)*; γGlu = O=C(O)[C@H](CCC(=O)[*:2])N[*:1]; AEEA = NCCOCCOCC(=O)O

Columns and labels:
[1] = molecular target: T1, human calcitonin receptor (Homo sapiens, UniProt P30988); experiment: ASSAY (VII) binding to the human calcitonin receptor (SPA, 125I-Calcitonin);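 note: cell membranes (35 ng/µL) combined with SPA beads in 40 µL of pH 7.4 Hepes buffer, 384-well format, signal counted on a TopCounter instrument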
T1 construct: expressed in transfected cells
T1 sequence (P30988 25-474): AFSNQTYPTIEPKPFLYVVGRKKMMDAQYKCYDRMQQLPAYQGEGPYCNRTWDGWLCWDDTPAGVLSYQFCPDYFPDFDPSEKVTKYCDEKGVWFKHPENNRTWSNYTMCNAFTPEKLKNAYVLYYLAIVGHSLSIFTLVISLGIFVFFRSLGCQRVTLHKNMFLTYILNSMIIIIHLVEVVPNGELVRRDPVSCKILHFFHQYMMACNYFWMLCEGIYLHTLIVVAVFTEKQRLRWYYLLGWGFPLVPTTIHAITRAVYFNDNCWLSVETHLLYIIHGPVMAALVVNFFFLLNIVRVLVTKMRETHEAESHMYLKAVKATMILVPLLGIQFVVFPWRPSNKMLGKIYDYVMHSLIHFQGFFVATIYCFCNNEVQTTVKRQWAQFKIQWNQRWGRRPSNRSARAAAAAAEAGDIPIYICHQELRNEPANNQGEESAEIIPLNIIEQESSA

[2] = molecular target: T2, human amylin receptor (membranes from Amylin 3(a)/CRE-luc cells) (Homo sapiens, UniProt O60896+P30988); experiment: ASSAY (V) binding to the human amylin receptor (SPA, 125I-rat amylin);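 note: competition binding of cell membranes (35 ng/µL) mixed with SPA beads in 384-well plates at 40 µL total volume, read by scintillation counting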
T2 construct: expressed in transfected cells
T2 sequence (P30988 25-474): T1 sequence (P30988 25-474)
T2 sequence (O60896 24-148 partner): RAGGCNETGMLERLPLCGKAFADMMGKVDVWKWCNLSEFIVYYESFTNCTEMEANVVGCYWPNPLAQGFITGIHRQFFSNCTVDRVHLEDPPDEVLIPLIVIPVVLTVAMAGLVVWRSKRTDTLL

[3] = molecular target: T3, rat amylin receptor (rat calcitonin receptor + rat RAMP 3) (Rattus norvegicus, UniProt P32214+Q9JJ73); experiment: ASSAY (VI) binding to the rat amylin receptor
T3 construct: expressed in transfected cells; host or cells: BHK tk'ts 13 (transient, FuGENE 6), membranes
T3 sequence (P32214 25-479 isoform P32214-2 limits assumed): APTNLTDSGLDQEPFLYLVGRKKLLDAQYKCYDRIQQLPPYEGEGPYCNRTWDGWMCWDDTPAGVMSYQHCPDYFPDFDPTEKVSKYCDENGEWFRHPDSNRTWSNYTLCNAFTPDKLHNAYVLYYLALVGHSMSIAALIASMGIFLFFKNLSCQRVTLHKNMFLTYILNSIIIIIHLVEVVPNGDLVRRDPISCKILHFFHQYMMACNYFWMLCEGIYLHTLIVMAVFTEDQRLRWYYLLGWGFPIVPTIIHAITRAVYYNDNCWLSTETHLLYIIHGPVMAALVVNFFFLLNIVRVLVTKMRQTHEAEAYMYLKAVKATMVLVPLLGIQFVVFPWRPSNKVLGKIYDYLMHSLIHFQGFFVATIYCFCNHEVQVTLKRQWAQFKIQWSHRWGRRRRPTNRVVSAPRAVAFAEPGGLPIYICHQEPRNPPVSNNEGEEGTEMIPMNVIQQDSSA
T3 sequence (Q9JJ73 23-147 partner): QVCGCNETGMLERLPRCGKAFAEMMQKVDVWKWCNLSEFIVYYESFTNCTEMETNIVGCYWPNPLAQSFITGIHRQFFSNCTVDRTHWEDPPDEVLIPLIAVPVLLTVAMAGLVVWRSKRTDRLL
How it was run: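 Membranes for this rat amylin receptor binding assay came from BHK tk′ts 13 cells. The cells were transiently transfected with rat calcitonin receptor using the FuGENE® 6 reagent from Roche, as the manufacturer recommends. The cells were collected approximately 48 hours after transfection, and membranes were then prepared.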

rat calcitonin receptor = molecular target: T4, rat calcitonin receptor (Rattus norvegicus, UniProt P32214); experiment: ASSAY (VIII) binding to the rat calcitonin receptor; settings: Table 7, read-out: rCTR bind IC50
T4 construct: expressed in transfected cells; host or cells: BHK tk'ts 13 (transient, FuGENE 6), membranes
T4 sequence (P32214 25-479 isoform P32214-2 limits assumed): T3 sequence (P32214 25-479 isoform P32214-2 limits assumed)
How it was run: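 Receptor source: membranes from transiently transfected BHK tk′ts 13 cells expressing rat calcitonin receptor, collected roughly 48 hours after transfection.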

[4] = ASSAY (IV) determination of solubility; type: physicochemical
How it was run: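 UPLC read-out of polypeptide concentration after centrifugation. Samples: aqueous polypeptide stock ([…]) + 100 mM buffer 1:1, glycylglycine pH 3.0–5.0 or bistrispropane pH 6.0–8.0; 18 h, RT.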

[5] = molecular target: T5, human calcitonin (a) receptor in BHK570 cells (Homo sapiens, UniProt P30988); experiment: ASSAY (II)a functional assay, human calcitonin receptor (CRE luciferase); type: cell-based
T5 construct: expressed in transfected cells
T5 sequence (P30988 25-474): T1 sequence (P30988 25-474)
How it was run: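 Receptor activation is measured as cAMP-driven CRE-luciferase expression in BHK cells expressing the calcitonin receptor, with RAMP-3 co-expressed to form the amylin 3(a) receptor. Cells are exposed to compound for 3 hours at 37° C, and luciferase is then quantified by luminescence.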

[6] = Table 5, selectivity, hCTR bind IC50 / hAmylin-R bind IC50
[7] = Table 5a, selectivity, hCTR bind IC50 / hAmylin-R bind IC50
[8] = Table 5b, selectivity, hCTR bind IC50 / hAmylin-R bind IC50
[9] = Table 5c, selectivity, hCTR bind IC50 / hAmylin-R bind IC50
[10] = Table 7, human binding selectivity, included for comparison
[11] = Table 7a (preferred compounds), human binding selectivity, included for comparison
[12] = ratio of human calcitonin receptor binding IC50 to human amylin receptor binding IC50
[13] = Table 7, rat binding selectivity, rCTR IC50 / rAmylin-R IC50
[14] = Table 7a (preferred compounds), rat binding selectivity, rCTR IC50 / rAmylin-R IC50
[15] = ratio of rCTR bind IC50 to rAmylin-R bind IC50

CC[C@H](C)[C@H](NC(=O)[C@H](C)NC(=O)CNC(=O)[C@H](Cc1ccccc1)NC(=O)[C@H](CC(N)=O)NC(=O)[C@@H]1CCCN1C(=O)[C@H](CO)NC(=O)[C@H](CO)NC(=O)[C@H](Cc1c[nH]cn1)NC(=O)[C@H](CCCNC(=N)N)NC(=O)[C@H](CC(C)C)NC(=O)[C@H](Cc1ccccc1)NC(=O)[C@H](CCCCN)NC(=O)[C@H](C)NC(=O)[C@H](CC(C)C)NC(=O)[C@H](CCCNC(=N)N)NC(=O)[C@H](CCC(N)=O)NC(=O)[C@@H](NC(=O)[C@H](C)NC(=O)[C@@H]1CSSC[C@H](NC(=O)[C@@H](N)CCCCNC(=O)COCCOCCNC(=O)CC[C@H](NC(=O)CCCCCCCCCCCCCCCCCCC(=O)O)C(=O)O)C(=O)N[C@@H](CC(N)=O)C(=O)N[C@@H]([C@@H](C)O)C(=O)N[C@@H](C)C(=O)N[C@@H]([C@@H](C)O)C(=O)N1)[C@@H](C)O)C(=O)N1CCC[C@H]1C(=O)N[C@@H](CO)C(=O)N[C@@H](CO)C(=O)N[C@H](C(=O)N1CCC[C@H]1C(=O)N[C@H](C(=O)NCC(=O)N[C@@H](CO)C(=O)N[C@@H](CC(N)=O)C(=O)N[C@H](C(=O)N[C@@H](Cc1ccc(O)cc1)C(N)=O)[C@@H](C)O)C(C)C)[C@@H](C)O [Example 74] (H-K([AEEA-γGlu-C20 diacid])CNTATCATQRLAKFLRHSSPNFGAIPSSTPVGSNTY-NH2; disulfide 2-7; N-terminus assumed)
IC50 [1]: 79.9 nM
IC50 [2]: 0.791 nM
Ratio hCT/hAmylin binding [2, 6]: 101.0
Ratio hCT/hAmylin binding [2, 7]: 101.0
Ratio hCT/hAmylin binding [2, 8]: 101.0
Ratio hCT/hAmylin binding [2, 9]: 101.0
Ratio hCT/hAmylin binding [2, 10]: 101.0
Ratio hCT/hAmylin binding [2, 11]: 101.0
Ratio hCT/hAmylin binding [2, 12]: 101.0
IC50 [3]: 4.89 nM
Ratio rCT/rAmylin binding [3, 13]: 22.3
Ratio rCT/rAmylin binding [3, 14]: 22.3
Ratio rCT/rAmylin binding [3, 15]: 22.3
IC50 (rat calcitonin receptor): 109 nM
solubility at 18 h ([4]; pH 3.0, read-out: Solubility pH 3.0 Concentration): ≥ 200 µM
solubility at 18 h ([4]; pH 4.0, read-out: Solubility pH 4.0 Concentration): ≥ 200 µM
solubility at 18 h ([4]; pH 5.0, read-out: Solubility pH 5.0 Concentration): ≥ 200 µM
solubility at 18 h ([4]; pH 6.0, read-out: Solubility pH 6.0 Concentration): ≥ 200 µM
solubility at 18 h ([4]; pH 6.5, read-out: Solubility pH 6.5 Concentration): ≥ 200 µM
solubility at 18 h ([4]; pH 7.0, read-out: Solubility pH 7.0 Concentration): ≥ 200 µM
solubility at 18 h ([4]; pH 7.5, read-out: Solubility pH 7.5 Concentration): ≥ 200 µM
solubility at 18 h ([4]; pH 8.0, read-out: Solubility pH 8.0 Concentration): ≥ 200 µM
EC50 [5]: 37.5 nM

CC[C@H](C)[C@H](NC(=O)[C@H](C)NC(=O)CNC(=O)[C@H](Cc1ccccc1)NC(=O)[C@H](CC(N)=O)NC(=O)[C@@H]1CCCN1C(=O)[C@H](CO)NC(=O)[C@H](CO)NC(=O)[C@H](Cc1c[nH]cn1)NC(=O)[C@H](CCCNC(=N)N)NC(=O)[C@H](CC(C)C)NC(=O)[C@H](Cc1ccccc1)NC(=O)[C@H](C)NC(=O)[C@H](C)NC(=O)[C@H](CC(C)C)NC(=O)[C@H](CCCNC(=N)N)NC(=O)[C@H](CCC(N)=O)NC(=O)[C@@H](NC(=O)[C@H](C)NC(=O)[C@@H]1CSSC[C@H](NC(=O)[C@@H](N)CCCCNC(=O)CC[C@H](NC(=O)CCCCCCCCCCCCCCCCCCC(=O)O)C(=O)O)C(=O)N[C@@H](CC(N)=O)C(=O)N[C@@H]([C@@H](C)O)C(=O)N[C@@H](C)C(=O)N[C@@H]([C@@H](C)O)C(=O)N1)[C@@H](C)O)C(=O)N1CCC[C@H]1C(=O)N[C@@H](CO)C(=O)N[C@@H](CO)C(=O)N[C@H](C(=O)N[C@@H](CC(N)=O)C(=O)N[C@H](C(=O)NCC(=O)N1CCC[C@H]1C(=O)N[C@@H](CC(N)=O)C(=O)N[C@H](C(=O)N[C@@H](Cc1ccc(O)cc1)C(N)=O)[C@@H](C)O)C(C)C)[C@@H](C)O [Example 94] (H-K([γGlu-C20 diacid])CNTATCATQRLAAFLRHSSPNFGAIPSSTNVGPNTY-NH2; disulfide 2-7 (inferred))
IC50 ([1]; read-out: hCTR bind IC50): 6.86 nM
IC50 ([2]; Table 4, read-out: hAmylin-R bind IC50): 0.148 nM
Ratio hCT/hAmylin binding [2, 6]: 46.3
Ratio hCT/hAmylin binding [2, 7]: 46.3
Ratio hCT/hAmylin binding [2, 8]: 46.3
Ratio hCT/hAmylin binding [2, 9]: 46.3
Ratio hCT/hAmylin binding [2, 10]: 46.3
Ratio hCT/hAmylin binding [2, 11]: 46.3
Ratio hCT/hAmylin binding [2, 12]: 46.3
IC50 ([3]; Table 7, binding to rat amylin receptor, read-out: rAmylin-R bind IC50): 0.397 nM
Ratio rCT/rAmylin binding [3, 13]: 280.1
Ratio rCT/rAmylin binding [3, 14]: 280.1
Ratio rCT/rAmylin binding [3, 15]: 280.1
IC50 (rat calcitonin receptor): 111 nM
solubility at 18 h ([4]; bistrispropane buffer, pH 6.5, read-out: Solubility pH 6.5 Concentration): ≥ 200 µM
solubility at 18 h ([4]; bistrispropane buffer, pH 7.5, read-out: Solubility pH 7.5 Concentration): ≥ 200 µM
solubility at 18 h ([4]; bistrispropane buffer, pH 6.0, read-out: Solubility pH 6.0 Concentration): ≥ 200 µM
solubility at 18 h ([4]; bistrispropane buffer, pH 7.0, read-out: Solubility pH 7.0 Concentration): ≥ 200 µM
solubility at 18 h ([4]; bistrispropane buffer, pH 8.0, read-out: Solubility pH 8.0 Concentration): ≥ 200 µM
solubility at 18 h ([4]; glycylglycine buffer, pH 3.0, read-out: Solubility pH 3.0 Concentration): ≥ 200 µM
solubility at 18 h ([4]; glycylglycine buffer, pH 4.0, read-out: Solubility pH 4.0 Concentration): ≥ 200 µM
solubility at 18 h ([4]; glycylglycine buffer, pH 5.0, read-out: Solubility pH 5.0 Concentration): ≥ 200 µM
EC50 ([5]; read-out: hCTR funct. EC50): 0.316 nM
